# Measured values as given in publication PMC7139875, “4-Pyridinio-1,4-Dihydropyridines as Calcium Ion Transport Modulators: Antagonist, Agonist, and Dual Action” (Oxidative Medicine and Cellular Longevity, 2020).
# “Also recorded” adds a separate entry of the source. Like-named read-outs stand apart in the source and are kept apart here.
# Key:
# [1] = test system: [Ca2+]i in SH-SY5Y cells; assay: Ca2+ channel agonist activity, [Ca2+]i in Fluo-4 NW-loaded cells; type: cell-based, human; details: for Agonist activity (RFU, 100 μM): compound at 100 μM
# Procedure: (§1) The intracellular free Ca^2+ concentration [Ca^2+]i was measured in confluent monolayers of SH-SY5Y or A7R5 cells with the Ca^2+-sensitive fluorescent indicator Fluo-4 NW according to the instruction (Fluo-4 NW Calcium Assay Kit, Thermo Fisher Scientific, cat. No. F36206) (as referenced by Vilskersts et al..
# (§2) For the investigation of Ca^2+ channel agonist activity of the DHP compound, 4 […] NW loaded SH-SY5Y or A7R5 cells were stimulated by the addition of compound 4 at the concentration range from 4 to 100 μM. The well-known calcium channel agonist Bay K8644 was used as the positive control (at the concentration range from 4 to 100 μM).
# (§3) Changes in [Ca^2+]i were measured from the fluorescence emitted at 516 nm due to alternate excitation at 494 nm using the microplate reader Tecan Infinite M1000 (Austria). Intracellular Ca^2+ concentration was calculated from a standard curve with known amounts of free Ca^2+ using the standard Ca^2+-EGTA buffering system (Calcium Calibration Buffer Kit, cat. No.C-3008, Thermo Fisher Scientific).
# (§4) In some experiments, […] NW loaded cells were washed and placed in normal Ca^2+-free HEPES-buffered replacement medium. In Ca^2+ restoration experiments, Ca^2+ was initially absent from the medium and was restored to 1 mM after 870 s of stimulation with compound 4.
# [2] = Electrochemical oxidation potentials by cyclic voltammetry; type: physicochemical; details: glassy carbon electrode, vs Ag/Ag+, acetonitrile, 0.1 M TBABF4
# Procedure: The cyclic voltammetry experiments were carried out on the PARSTAT 2273 electrochemical system. A stationary glassy carbon disk electrode (d = 0.8 mm) served as the working electrode, while the counter electrode was a Pt wire. The oxidation potentials were measured relative to Ag/Ag^+ reference electrode. Acetonitrile was dried over P2O5 and distilled; the distillate was stored over CaH2 and redistilled just before use. Recrystallized tetrabutylammonium tetrafluoroborate (TBABF4) was used as a supporting electrolyte at 0.1 M concentration.
# [3] = test system: carbachol-dependent mobilization of intracellular Ca2+ in SH-SY5Y cells; assay: Antagonist effect on carbachol-evoked intracellular Ca2+ mobilization (Fluo-4 NW); type: cell-based, human
# Procedure: as §1
# The investigation of Ca^2+ channel blocking activity of DHP derivatives was based on the effect of DHP on carbachol evoked intracellular Ca^2+ mobilization in human neuroblastoma cells.
# The cells were preincubated in the dark for 15 minutes with the tested compounds at concentrations ranging from 0.16 to 100 μM. The application of carbachol (100 nM) to […] NW loaded SH-SY5Y cells stimulated a classic “biphasic” response. The well-known 3rd generation calcium channel inhibitor amlodipine, which is also claimed to act as antioxidant and free radical scavenger, was used as the positive control (at the concentration range from 20 to 100 μM).
# as §3
# The IC50 values for the tested compounds were calculated using GraphPad Prism 4.0 software.
# [4] = test system: Ca2+ ion channel activity evoked by compound 4 in SH-SY5Y cells; assay: Inhibitor analysis of Ca2+ ion channel activity evoked by compound 4; type: cell-based, human; details: for inhibition at 100 µM / IC50: Homo sapiens; for inhibition at 100 µM: SH-SY5Y, 15 min preincubation; for IC50: 100 μM compound 4, SH-SY5Y cells, read-out: IC50 for inhibition of Ca2+ ion channel activity evoked by compound 4; for Effect on Ca2+ ion channel activity in the presence of compound 4: inhibitor at concentrations from 4 to 100 μM
# Procedure: The intracellular free Ca^2+ concentration [Ca^2+]i was measured in confluent monolayers of SH-SY5Y or […] cells with the Ca^2+-sensitive fluorescent indicator Fluo-4 NW according to the instruction (Fluo-4 NW Calcium Assay Kit, Thermo Fisher Scientific, cat. No. F36206) (as referenced by […] al.. Changes in [Ca^2+]i were measured from the fluorescence emitted at 516 nm due to alternate excitation at 494 nm using the microplate reader Tecan Infinite M1000 (Austria). Intracellular Ca^2+ concentration was calculated from a standard curve with known amounts of free Ca^2+ using the standard Ca^2+-EGTA buffering system (Calcium Calibration Buffer Kit, cat. No.C-3008, Thermo Fisher Scientific). […] The commercial calcium agonist compound Bay […] was used as the reference compound.
# [5] = test system: Ca2+ response induced by compound 4 in SH-SY5Y cells (RyRs); assay: Role of RyRs in Ca2+ response induced by compound 4 (Ca2+-free medium); type: cell-based, human
# Procedure: as §4
# Where indicated, the cells were preincubated with inhibitors of Ca^2+ signaling proteins (amlodipine, nifedipine, nicardipine, mecamylamine, atropine, or 2-aminoethoxydiphenyl borate (2-APB) in dose 100 μM; procaine in dose 10 mM for 15 min, or with 5 μM thapsigargin for 10 min, or with 100 μM ruthenium red for 5 min), followed by stimulation with 100 μM of compound 4. The commercial calcium agonist compound Bay K8644 was used as the reference compound.
# [6] = test system: [Ca2+]i in A7R5 cells; assay: Ca2+ channel agonist activity in A7R5 aorta smooth muscle cells; type: cell-based, rat; details: 20 to 100 μM
# Procedure: as §1, §2, §3
# [7] = test system: isolated rat aortic ring; assay: Isolated rat aortic ring model, KCl precontracted denuded rings
# Procedure: The experimental animal (one rat) was anesthetized with pentobarbital sodium (60 mg/kg i.p.). Once deep anesthesia was achieved, the thoracic aorta was dissected, placed in ice cold Krebs-Henseleit (K-H) buffer (content in mM: NaCl 118, KCl 4.7, CaCl2 2.5, MgCl2 1.64, NaHCO3 24.88, KH2PO4 1.18, glucose 10.0, sodium pyruvate 5.0, and disodium salt of ethylenediaminetetraacetic acid 0.05), cleaned from connective and fatty tissues, and cut into 3-4 mm long rings. Endothelium was mechanically scraped off with the tips of forceps, and the aortic rings were mounted between two stainless steel hooks attached to an isometric force transducer in 20 ml organ bath in K-H buffer bubbled with 95% O2 and 5% CO2 at 37°C (one separate aortic ring was used for each tested compound). Passive tension was adjusted to approximately 40 mN over a 60 min equilibration period. The experiment was started after the equilibration period by adding KCl solution to obtain a concentration of 50 mM. Addition of KCl induced contraction of the aortic rings, and a plateau of contraction was reached about […]. Thereafter, the tested compound solutions in dimethyl sulfoxide were added to the aortic rings in order to obtain the final concentrations in the range of 10^−10-10^−5 M. Changes in the tension were recorded using LabChart Pro software from ADInstruments (https://www.adinstruments.com/products/labchart/labchart-for-research). The EC50 values of the tested compounds were calculated using Prism 3.0 software from GraphPad (GraphPad Software Inc., USA) (https://www.graphpad.com/scientific-software/prism/). The experimental procedures involving experimental animals were carried out in accordance with the guidelines of the European Community, LR local laws and policies, and were approved by the Latvian Animal Protection Ethical Committee, the Food and Veterinary Service, Riga, Latvia.
# [8] = Homo sapiens, SH-SY5Y cells, 100 nM carbachol, 15 min preincubation, read-out: Antagonist activity (IC50)
# [9] = inhibitor 100 μM, 100 μM compound 4
# [10] = inhibitor 4 μM, 100 μM compound 4
# [11] = inhibitor 20 μM, 100 μM compound 4
# [12] = SH-SY5Y cells, 100 nM carbachol, 15 min preincubation
structure (smiles),measurement,setting,value
CCOC(=O)COC(=O)C1=C(C)NC(C)=C(C(=O)OCC(=O)OCC)C1c1ccc[n+](CC(=O)c2ccc(OC)cc2)c1 [Compound 6],"Agonist activity (RFU, 100 μM)",[1],No effect
same,Electrooxidation potential,[2],1.78 V
same,IC50,[3]; [8],100 ± 9 µM
same,Antagonist activity relative to amlodipine (times lower),[3]; SH-SY5Y cells,approximately nine times lower
COC(=O)C1=C(C)NC(C)=C(C(=O)OCCN(C)Cc2ccccc2)C1c1cccc([N+](=O)[O-])c1 (stereo not drawn) [Nicardipine],inhibition at 100 µM,[4]; [9],33 ± 8%
same,IC50,[4],> 100 µM
same,Inhibition (%) of Ca2+ ion channel activity evoked by compound 4,[4]; [10],10 ± 6%
same,Inhibition (%) of Ca2+ ion channel activity evoked by compound 4,[4]; [11],11 ± 5%
COC(=O)C1=C(C)NC(C)=C(C(=O)OC)C1c1ccccc1[N+](=O)[O-] [Nifedipine],inhibition at 100 µM,[4]; [9],42 ± 5%
same,IC50,[4],> 100 µM
same,Inhibition (%) of Ca2+ ion channel activity evoked by compound 4,[4]; [10],7 ± 8%
same,Inhibition (%) of Ca2+ ion channel activity evoked by compound 4,[4]; [11],16 ± 10%
same,Phase of the compound 4 response that is inhibited,[4]; [9],inhibited both phases
CCOC(=O)COC(=O)C1=C(C)NC(C)=C(C(=O)OCC(=O)OCC)C1c1ccc[n+](CC(=O)c2ccccc2)c1 [Compound 3],"Agonist activity (RFU, 100 μM)",[1],No effect
same,Electrooxidation potential,[2],1.68 V
same,IC50,[3]; [8],3.6 ± 0.3 µM
COC(=O)C1=C(C)NC(C)=C([N+](=O)[O-])C1c1ccccc1C(F)(F)F (stereo not drawn) [Bay K8644],"Agonist activity (RFU, 100 μM)",[1],1553 ± 115 RFU
same,Antagonist activity (IC50),[3]; [12],No effect
CCOC(=O)COC(=O)C1=C(C)NC(C)=C(C(=O)OCC(=O)OCC)C1c1cc[n+](CC(=O)c2ccccc2)cc1 [Compound 5],"Agonist activity (RFU, 100 μM)",[1],No effect
same,Electrooxidation potential,[2],1.70 V
same,Antagonist activity (IC50),[3]; [12],lacked any activity; also recorded: no activity; also recorded: No effect
CNC1(C)C2CCC(C2)C1(C)C (stereo not drawn) [Mecamylamine],Effect on Ca2+ ion channel activity in the presence of compound 4,[4],no effect
CCOC(=O)COC(=O)C1=C(C)NC(C)=C(C(=O)OCC(=O)OCC)C1c1ccc[n+](CC(=O)c2ccc([N+](=O)[O-])cc2)c1 [Compound 1],"Agonist activity (RFU, 100 μM)",[1],No effect
same,IC50,[3]; [8],100 ± 12 µM
"N.N.N.N.N.N.N.N.N.N.N.N.N.N.[Cl-].[Cl-].[Cl-].[Cl-].[Cl-].[Cl-].[O-2].[O-2].[Ru+3].[Ru+3].[Ru+4] [Ruthenium, Ruthenium red]",Ca2+ response induced by compound 4 after preincubation with inhibitor,[5]; inhibitor 100 μM,absent
C/C=C(/C)C(=O)O[C@H]1C(C)=C2[C@H]([C@@H]1OC(=O)CCCCCCC)[C@@](C)(OC(C)=O)C[C@H](OC(=O)CCC)[C@@]1(O)[C@H]2OC(=O)[C@@]1(C)O [thapsigargin],Influence on Ca2+ ion increase induced by compound 4,"[4]; 5 μM inhibitor, Ca2+-free medium",no influence
CCOC(=O)CC[n+]1cccc(C2C(C(=O)OCC(=O)OCC)=C(C)NC(C)=C2C(=O)OCC(=O)OCC)c1 [Compound 2],"Agonist activity (RFU, 100 μM)",[1],No effect
same,Electrooxidation potential,[2],1.69 V
same,Antagonist activity (IC50),[3]; [12],lacked any activity; also recorded: no activity; also recorded: No effect
CCN(CC)CCOC(=O)c1ccc(N)cc1 [Procaine],IC50,"[5]; Homo sapiens, SH-SY5Y, Ca2+-free medium, read-out: IC50 for inhibition of Ca2+ response induced by compound 4",61 ± 9 µM
same,inhibition at 6.25 µM,"[5]; Homo sapiens, SH-SY5Y, inhibitor 6.25 μM, Ca2+-free medium",0%
same,inhibition at 12.5 µM,"[5]; Homo sapiens, SH-SY5Y, inhibitor 12.5 μM, Ca2+-free medium",5 ± 9%
same,inhibition at 25 µM,"[5]; Homo sapiens, SH-SY5Y, inhibitor 25 μM, Ca2+-free medium",0%
same,inhibition at 50 µM,"[5]; Homo sapiens, SH-SY5Y, inhibitor 50 μM, Ca2+-free medium",18 ± 6%
same,inhibition at 100 µM,"[5]; Homo sapiens, SH-SY5Y, inhibitor 100 μM, Ca2+-free medium",98 ± 5%
same,Ca2+ response induced by compound 4 after preincubation with inhibitor,[5]; inhibitor 10 mM,completely blocked; also recorded: absent
"NCCOB(c1ccccc1)c1ccccc1 [Compound 2-APB, 2-aminoethoxydiphenyl borate]",Effect on Ca2+ channel response induced by compound 4,[4]; pretreatment for 15 min,no effect
CCOC(=O)COC(=O)C1=C(C)NC(C)=C(C(=O)OCC(=O)OCC)C1c1ccc[n+](C(C)C(=O)c2ccc(OCc3ccccc3)cc2)c1 (stereo not drawn) [Compound 4],Decrease of intracellular [Ca2+]i signal in the absence of extracellular Ca2+,"[1]; 100 μM compound, compared to presence of extracellular Ca2+",50%
same,"Agonist activity (RFU, 100 μM)",[1],14425 ± 1072 RFU
same,Ca2+ ion channel agonist activity,[6],dose-dependent agonist activity
same,Electrooxidation potential,[2],1.68 V
same,inhibition at 8 µM,"[3]; Homo sapiens, SH-SY5Y, compound at 0,8 μM, read-out: Inhibition (%) of Ca2+ channels activated with carbachol",4 ± 10%
same,inhibition at 16 µM,"[3]; Homo sapiens, SH-SY5Y, compound at 0,16 μM, read-out: Inhibition (%) of Ca2+ channels activated with carbachol",-16 ± 10%
same,inhibition at 4 µM,"[3]; Homo sapiens, SH-SY5Y, compound at 4 μM, read-out: Inhibition (%) of Ca2+ channels activated with carbachol",11 ± 12%
same,inhibition at 20 µM,"[3]; Homo sapiens, SH-SY5Y, compound at 20 μM, read-out: Inhibition (%) of Ca2+ channels activated with carbachol",71 ± 9%
same,IC50,[3]; [8],12 ± 2 µM
same,IC50,"[3]; Homo sapiens, Table 5, SH-SY5Y cells, read-out: IC50, antagonist effect on Ca2+ channels activated with carbachol",12 ± 2 µM
same,EC50,"[7]; KCl precontracted denuded rat aortic rings, read-out: Calcium channel blocking activity EC50",0.691 ± 0.167 µM
same,Calcium channel blocking activity relative to amlodipine (times weaker),[7]; isolated rat aortic ring model,about 50 times
same,Agonist effect (contractions of aorta rings),[7]; isolated rat aortic rings,no agonist effect
CN1[C@@H]2CC[C@H]1C[C@@H](OC(=O)C(CO)c1ccccc1)C2 (stereo partly drawn) [Atropine],Effect on Ca2+ ion channel activity in the presence of compound 4,[4],no effect
